Test [1] has as its target human source ERAAP (Homo sapiens, UniProt Q9NZ08). Nature of the test: ERAAP modulation/selectivity screen against a panel of other aminopeptidases. The class given is biochemical. The settings on record: preferential inhibition of ERAAP compared with a panel of other aminopeptidases. The text has this: The targeted ERAAP is a well-known, naturally-occurring aminopeptidase, which has been biochemically characterized and cloned in a wide variety of animal species, including mice, rats and humans. […] Note that the same enzyme has been called “A-LAP” (adipocyte-derived leucine aminopeptidase) by others (e.g. Hattori et al., supra).
Protocols for delivering the inhibitor and effective dosages are known in the art and/or readily determined empirically by those skilled in the art guided by the selected inhibitor and the present disclosure. […] For example, the well-characterized structural interaction between aminothiol inhibitors of aminopeptidases (e.g. Bienvenue et al., J Inorgan Biochem 2000, 78, 43-54) were exploited to select ERAAP selective aminothiol-type inhibitors. In this manner, we screened panels of compounds and identified a number of ERAAP-selective aminothiol inhibitors, including leucine thiol and lysinethiol. ERAAP modulation assays may be performed by any convenient protocol, including those described by us in Serwold et al. (2001, supra), those of Hattori et al. (2000, supra), etc. […] Alternative aminopeptidase inhibitor pharmacophores for ERAAP selectivity and method compatibility screens include L-bis (1-thio-2-amino-4-methylpentane) dihydrochloride (TAMP) and L-bis (1-thio-2-amino-3-phenylpropane) dihydrochloride (TAPP) (see, e.g. Weiss et al., Res Comm Chem Path Pharmacol 1988, 62, 113-2) and alpha-thiolbestatins (e.g. Ocain et al., J Med Chem 1988 November;31(11):2193-9).

Test [2] addresses T1, predominant aminopeptidase activity present in the ER (ERAAP) (Mus musculus, UniProt Q9EQH2).
T1 construct: Microsomes from liver and spleens of mice were solubilized in detergent; from tissue; host or cells: mouse liver and spleen microsomes
T1 sequence (Q9EQH2 1-930): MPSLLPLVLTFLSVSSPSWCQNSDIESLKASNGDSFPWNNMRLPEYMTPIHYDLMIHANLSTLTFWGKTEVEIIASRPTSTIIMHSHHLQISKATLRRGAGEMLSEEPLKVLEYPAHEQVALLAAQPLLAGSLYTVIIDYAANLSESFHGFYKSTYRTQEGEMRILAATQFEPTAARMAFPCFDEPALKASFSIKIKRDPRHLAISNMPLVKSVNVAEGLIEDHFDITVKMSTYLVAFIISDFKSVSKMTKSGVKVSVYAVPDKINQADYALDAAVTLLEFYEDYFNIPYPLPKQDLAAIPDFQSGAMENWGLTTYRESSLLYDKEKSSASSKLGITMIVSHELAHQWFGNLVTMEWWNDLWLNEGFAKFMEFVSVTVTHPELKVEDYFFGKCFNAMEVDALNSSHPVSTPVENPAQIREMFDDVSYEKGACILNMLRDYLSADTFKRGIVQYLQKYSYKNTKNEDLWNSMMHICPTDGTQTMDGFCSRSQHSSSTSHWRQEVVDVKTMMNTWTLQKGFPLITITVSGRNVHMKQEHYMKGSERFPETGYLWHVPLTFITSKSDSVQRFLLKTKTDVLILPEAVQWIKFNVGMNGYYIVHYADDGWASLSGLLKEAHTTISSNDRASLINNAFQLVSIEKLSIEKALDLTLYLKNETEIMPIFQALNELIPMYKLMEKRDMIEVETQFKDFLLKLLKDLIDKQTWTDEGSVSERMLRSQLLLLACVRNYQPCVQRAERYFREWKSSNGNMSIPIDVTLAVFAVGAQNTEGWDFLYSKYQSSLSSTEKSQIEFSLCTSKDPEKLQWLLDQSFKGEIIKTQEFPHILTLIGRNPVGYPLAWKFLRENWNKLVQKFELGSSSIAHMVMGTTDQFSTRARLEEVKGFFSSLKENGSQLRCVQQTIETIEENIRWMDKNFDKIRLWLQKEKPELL
Description: Aminopeptidase activity of solubilized microsomes, colorimetric substrate leucine-p-nitroanilide. The test is classed as biochemical, mice. Particulars: ion exchange chromatography of solubilized microsomes from mouse liver and spleen. The text has this:
To identify this protease, we biochemically purified the predominant aminopeptidase activity present in the ER. Microsomes from liver and spleens of mice were solubilized in detergent and the aminopeptidase activity was monitored by the colorimetric substrate leucine-p-nitroanilide (9). […] This activity was precipitated from solubilized microsomes by ammonium sulfate, resolublized and fractionated by size exclusion, ion exchange and hydrophobic interaction chromatographies. The highly enriched fractions from the final purification step contained a major band of approximately 100 kD on a coommassie blue stained SDS-PAGE gel. This band was subjected to in-gel trypsin digestion and the peptides were analyzed by MALDI-TOF mass spectrometry; the resulting tryptic peptide fingerprint was used to search the NCBI database (10). In two independent experiments 25 masses matched the predicted output of trypsin digested murine adipocyte-derived leucine aminopeptidase (Genbank Accession # AF227511). This assignment was further confirmed with the amino acid sequences of four peptides determined by high energy CID MS-MS analysis (11). This 930 amino acid murine aminopeptidase and its human and rat homologues are known by a variety of different names (12). […]

Test [3] deals with antigen presenting cells (APC). Nature of the test: APC assays with peripheral blood leukocytes from aminothiol-treated rats. The test is classed as in vivo, Sprague-Dawley rats. Particulars: peripheral blood leukocytes of treated rats as APC for T cells specific for K^b or D^b presented peptides.
The subject of test [4] is Sprague-Dawley rats. Nature of the test: Phenotypic and functional indicia of immunosuppression in treated rats. The test is classed as in vivo.
The test system of test [5] is ERAAP. Nature of the test: ERAAP expression in cultured fibroblasts treated with interferon gamma. The class given is cell-based. As to the method: MHC I molecules are expressed by virtually all tissues. To determine whether ERAAP expression correlated with that of MHC I, seven different mouse tissues were analyzed by western blot for expression of ERAAP, MHC I and the housekeeping proteins actin and gp96 as controls. ERAAP was detected in all tissues analyzed but its expression was highest in the liver, lung, spleen and thymus, the same tissues which also expressed the highest levels of MHC I molecules. Furthermore, the expression of ERAAP was increased approximately 10-fold by treatment of cultured fibroblasts with the inflammatory cytokine interferon gamma, which also upregulates many other key components in the antigen processing pathway (17).

Sequence of human source ERAAP (Q9NZ08 whole entry): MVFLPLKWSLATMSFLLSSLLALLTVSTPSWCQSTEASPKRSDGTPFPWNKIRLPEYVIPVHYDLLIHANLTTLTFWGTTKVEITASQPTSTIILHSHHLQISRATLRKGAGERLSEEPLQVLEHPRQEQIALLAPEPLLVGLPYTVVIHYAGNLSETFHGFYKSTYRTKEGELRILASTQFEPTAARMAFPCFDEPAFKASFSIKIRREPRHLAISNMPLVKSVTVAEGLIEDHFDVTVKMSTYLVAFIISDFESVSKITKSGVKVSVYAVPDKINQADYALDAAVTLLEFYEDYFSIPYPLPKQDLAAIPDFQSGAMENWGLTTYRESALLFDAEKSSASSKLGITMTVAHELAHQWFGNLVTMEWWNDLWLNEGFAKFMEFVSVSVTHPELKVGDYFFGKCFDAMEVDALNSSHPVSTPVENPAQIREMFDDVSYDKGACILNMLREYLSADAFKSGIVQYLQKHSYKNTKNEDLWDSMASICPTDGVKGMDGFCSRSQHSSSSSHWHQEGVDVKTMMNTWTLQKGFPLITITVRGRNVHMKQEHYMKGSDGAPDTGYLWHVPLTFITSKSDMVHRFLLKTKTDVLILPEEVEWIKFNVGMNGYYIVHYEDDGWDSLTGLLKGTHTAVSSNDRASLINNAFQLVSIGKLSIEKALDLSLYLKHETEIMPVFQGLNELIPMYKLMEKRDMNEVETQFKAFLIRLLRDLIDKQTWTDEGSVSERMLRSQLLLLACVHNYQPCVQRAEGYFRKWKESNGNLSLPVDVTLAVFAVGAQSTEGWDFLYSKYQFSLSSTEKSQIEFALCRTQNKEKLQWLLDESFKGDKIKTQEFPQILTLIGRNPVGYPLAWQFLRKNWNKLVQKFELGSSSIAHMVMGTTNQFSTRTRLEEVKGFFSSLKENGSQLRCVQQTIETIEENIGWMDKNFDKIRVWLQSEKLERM

Take `CC[C@H](C)[C@H](N)CS` [isoleucinethiol]: the ERAAP selectivity result in test [1] is “ERAAP-selective”.
In the case of `CC(C)C[C@H](N)CS` [leucinethiol], in test [2], the “predominant aminopeptidase activity peak” value is recorded as “blocked”. In addition, in test [1], the ERAAP selectivity result was “ERAAP-selective”. Further, the APC function entry in test [3] is “pronounced inhibition”. Besides, the “spleen and thymus volume” value in test [4] was “reduced”. Moreover, the graft-host response result in test [4] (e.g. skin graft assays) is recorded as “reduced”.
In the case of `NCCCC[C@H](N)CS` [lysinethiol], the ERAAP selectivity result in test [1] is “ERAAP-selective”.
On to interferon gamma: inflammatory cytokine, for which the “increase of ERAAP expression” value in test [5] is “approximately 10 fold”.
